Source: patent US20160106104A1, “SILICONE-BASED ANTIMICROBIAL COMPOSITION” (UNIVERSITE DU MAINE, priority 2013, published 2016)

Legend:
Assay type in all cases: cell-based
[1] = tested on: Candida albicans IHEM 14796; assay: Tests on yeast according to ISO 22196; conditions: incubation 24 h
Protocol: The antibacterial activity of the silicone compositions of the invention was tested on the yeast line Candida albicans IHEM 14796, according to the procedure of the ISO 22196 standard (second edition, 2011).
(§1) The silicone films prepared in Example 5A were used.
The procedure followed is identical with that of Example 5A.

[2] = tested on: Penicillium chrysogenum HEM 20859; assay: Tests on a fungus according to ISO 16869 (modified); parameters: key: mark 0 is ascribed when no growth is observed; mark 1 is ascribed when beginning of growth is observed; mark 2 is ascribed when obvious growth is observed; conditions: silicone film with 5% antimicrobial agent, 25° C., naked eye mark
Protocol: The antifungal activity of the silicone compositions of the invention was tested on the fungus line Penicillium chrysogenum HEM 20859, according to the procedure of the ISO 16869 standard (second edition, 2008).
as §1
Thus, each silicone film sample was placed in a Petri dish between a lower layer of nutrient salt agar (20 ml) and an upper layer of Peptone Dextrose agar in which fungus spores were dispersed. The remainder of the procedure of the aforementioned standard was followed.
The culture media were incubated at 25° C. for at least 48 h, and for up to 7 days.
The results are evaluated with the naked eye: • mark 0 is ascribed when no growth is observed, • mark 1 is ascribed when beginning of growth is observed, and • mark 2 is ascribed when obvious growth is observed.

[3] = tested on: Acinetobacter baumannii CIP 70.34; assay: Antibacterial activity of silicone films, ISO 22196; conditions: incubation 24 h at 37° C., detection limit log10(N)=1.4
Protocol: (§2) The antibacterial activity of the silicone compositions of the invention was tested on 6 lines of bacteria, according to the procedure for the ISO 22196 standard (second edition, 2011).
(§3) The lines of tested bacteria are: Klebsiella pneumoniae DSM 16609, Staphylococcus aureus ATCC 25923, Enterococcus faecalis ATCC 29212, Escherichia coli ATCC 8739, Acinetobacter baumannii CIP 70.34 and Enterobacter cloacae DSM 30054.
(§4) Silicone films were prepared according to Examples 2 and 3, comprising 0%, 2% or 5% of antimicrobial agent PHMG-DBS, OMIM-BF4 or DMIM-BF4 (7 types of silicone films were therefore prepared).
(§5) Square pieces of silicone films with dimensions 25 mm×25 mm were cut out, as well as squares of polypropylene of dimension 20 mm×20 mm. The latter were passed in the autoclave at 115° C. for 20 minutes.
(§6) The bacteria were cultivated overnight at 37° C. in an agar culture medium. Suspensions of bacteria were then prepared in a nutrient broth culture medium with a bacterial concentration of 6.10^5 CFU/ml.
(§7) Each silicone square (not sterilized) was placed on a lid of a Petri dish with a diameter of 55 mm, which itself was placed in a Petri dish with a diameter of 94 mm. 100 μl of bacterial suspension were deposited on each silicone square and spread out by means of a polypropylene square. 10 ml of sterile water were added in the bottom of the Petri dish with a diameter of 94 mm in order to ensure high relative humidity during incubation at 37° C. for 24 hours. For each silicone film type, three specimens were made.
(§8) After incubation, each silicone film was placed in a new Petri dish and washed with 10 ml of […] (SCDLP, according to the standard procedure of the ISO standard) for recovering the bacteria. After 5 washes, the SCDLP suspension was diluted down to 10^−6, and 1 ml of obtained solution was placed on a gelose plate PCA (duplicated). Each plate was incubated at 37° C. for 24 hours. The number of colonies on each Petri dish was then counted.
(§9) The viability of the bacteria depending on the obtained results was calculated by means of the following formula: […]
(§10) wherein: • N refers to the number of viable bacteria observed per cm^2 of each tested sample, • C refers to the average count of colonies on each gelose plate PCA, and • D refers to the dilution factor used for the counting.
(§11) The results of the viability measurements of the bacteria, expressed in log10(N), are gathered in Table 1, the detection limit having been set to a number of recovered bacteria equal to 10 (i.e. log10(N)=1.4).

[4] = tested on: Escherichia coli ATCC 8739; assay: as above; conditions: incubation 24 h at 37° C., detection limit log10(N)=1.4
Protocol: as §2, §3, §4, §5, §6, §7, §8, §9, §10, §11

[5] = tested on: Enterobacter cloacae DSM 30054; assay: as above; conditions: incubation 24 h at 37° C., detection limit log10(N)=1.4
Protocol: as §2, §3, §4, §5, §6, §7, §8, §9, §10, §11

[6] = tested on: Enterococcus faecalis ATCC 29212; assay: as above; conditions: incubation 24 h at 37° C., detection limit log10(N)=1.4
Protocol: as §2, §3, §4, §5, §6, §7, §8, §9, §10, §11

[7] = tested on: Klebsiella pneumoniae DSM 16609; assay: as above; conditions: incubation 24 h at 37° C., detection limit log10(N)=1.4
Protocol: as §2, §3, §4, §5, §6, §7, §8, §9, §10, §11

[8] = tested on: Staphylococcus aureus ATCC 25923; assay: as above; conditions: incubation 24 h at 37° C., detection limit log10(N)=1.4
Protocol: as §2, §3, §4, §5, §6, §7, §8, §9, §10, §11

[9] = silicone film with 2% antimicrobial agent
[10] = silicone film with 5% antimicrobial agent

Row | Compound | Viability of yeasts (log10(N)) Candida albicans [1, 9] | Viability of yeasts (log10(N)) Candida albicans [1, 10] | Observation of the growth of fungi Penicillium chrysogenum, Incubation for 48 h ([2]; 48 h) | Observation of the growth of fungi Penicillium chrysogenum, Incubation for 7 days ([2]; 7 days) | Viability of bacteria (log10(N)) Acinetobacter baumannii [3, 9] | Viability of bacteria (log10(N)) Acinetobacter baumannii [3, 10] | Viability of bacteria (log10(N)) Escherichia coli [4, 9] | Viability of bacteria (log10(N)) Escherichia coli [4, 10] | Viability of bacteria (log10(N)) Enterobacter cloacae [5, 9] | Viability of bacteria (log10(N)) Enterobacter cloacae [5, 10] | Viability of bacteria (log10(N)) Enterococcus faecalis [6, 9] | Viability of bacteria (log10(N)) Enterococcus faecalis [6, 10] | Viability of bacteria (log10(N)) Klebsiella pneumoniae [7, 9] | Viability of bacteria (log10(N)) Klebsiella pneumoniae [7, 10] | Viability of bacteria (log10(N)) Staphylococcus aureus [8, 9] | Viability of bacteria (log10(N)) Staphylococcus aureus [8, 10]
1 | CCCCCCCCCCCCn1cc[n+](C)c1.F[B-](F)(F)F [DMIM-BF4, 1-dodecyl-3-methylimidazolium tetrafluoroborate] | 1.4 log10(N) | 1.4 log10(N) | 0 | 0 | 1.6 log10(N) | 1.4 log10(N) | 1.4 log10(N) | 1.4 log10(N) | 1.4 log10(N) | 1.4 log10(N) | 1.4 log10(N) | 1.4 log10(N) | 1.4 log10(N) | 1.4 log10(N) | 1.4 log10(N) | 1.4 log10(N)
2 | CCCCCCCCn1cc[n+](C)c1.F[B-](F)(F)F [OMIM-BF4, 1-octyl-3-methylimidazolium tetrafluoroborate] | 6.1 log10(N) | 3.0 log10(N) |  |  | 5.8 log10(N) | 1.4 log10(N) | 1.4 log10(N) | 1.4 log10(N) | 3.6 log10(N) | 1.4 log10(N) | 3.6 log10(N) | 1.4 log10(N) | 3.3 log10(N) | 4.6 log10(N) | 1.6 log10(N) | 1.4 log10(N)
